Test results taken from patent US11135320B2, “Radioligands for pretargeted pet imaging and methods of their therapeutic use” (priority 2015, dated 2021).
“And” between values parts separate entries of the source, which are not always exact repeats. Equal values may be shown once.

Key:
[1] = Stability of ^64Cu-labeled tetrazines in PBS (pH 7.4) at 37° C.; type: physicochemical; conditions: PBS pH 7.4, 37° C.
Experimental: (§1) Next, the aqueous and serum stabilities were determined via incubation at 37° C. (Tables 2-3). […] For example, after a 4 h incubation, 77.8±3.5% and 81.2±3.7% of ^64Cu-Tz-PEG7-NOTA and ^64Cu-Tz-SarAr, respectively, remained intact. Importantly, the release of ^64Cu^2+ from the chelators was not observed in any of the trials. Despite the rates of decomposition, the speed of the IEDDA reaction was faster than short blood half-lives of these small molecules; therefore, the radioligands remained functional in vivo.
(§2) ^64Cu-Tz-PEG7-NOTA and ^64Cu-Tz-SarAr (1000 μCi) were incubated on an agitating thermomixer (300 rpm) at 37° C. in 500 μL of either PBS (pH 7.4) or human serum. At each prescribed time-point, 100 μL of the solution was removed and placed into a 1.7 mL microcentrifuge tube. For the PBS samples, the compound was injected directly onto the HPLC and analyzed using a gradient of 5:95 CH3CN:H2O (both with 0.1% TFA) to 95:5 CH3CN:H2O over 15 min. For the serum samples, 100 μL cold CH3CN was added to the serum, and the resultant mixture was vortexed and centrifuged at 10,000 rpm for 10 min. After this, the clear supernatant was removed, moved to a new 1.7 mL microcentrifuge tube, and centrifuged again at 10,000 rpm for 10 min. The clear supernatant from this second spin was then injected into the HPLC and analyzed using a gradient of 5:95 CH3CN:H2O (both with 0.1% TFA) to 95:5 CH3CN:H2O over 15 min. The residual protein from the centrifuge spins was checked for radioactivity, and only minimal residual activity remained (less than 1% of the starting ^64Cu for each ^64Cu-Tz-PEG7-NOTA and ^64Cu-Tz-SarAr). The fraction of intact ^64Cu-Tz-PEG7-NOTA or ^64Cu-Tz-SarAr was determined by integrating the peak corresponding to the compound (tR=9.7 and 8.7 minutes, respectively) and dividing by the integral over the whole HPLC run. Both the injection loop and column were monitored to detect the presence of residual activity. All experiments were performed in triplicate.

[2] = Partition coefficient (log D), 1-octanol / PBS; type: physicochemical; conditions: 1-octanol / PBS (pH 7.4)
Experimental: Once the precursors were made, the tetrazine constructs were then radiolabeled via incubation with [^64Cu]—CuCl2 for 10 minutes at room temperature in 200 mM NH4OAc, pH 5.0 and purified via reverse-phase C18 HPLC (tR=8.7 min for ^64Cu-Tz-SarAr and 9.7 min for ^64Cu-Tz-PEG7NOTA; FIGS. 6-9). In both cases, the identity of the radiolabeled product was confirmed via co-injection of unlabeled ^natCu-Tz-SarAr and ^natCu-Tz-PEG7-NOTA standards. Ultimately, ^64Cu-Tz-PEG7NOTA was prepared in greater than 99% radionuclidic purity, 78±6% decay-corrected isolated yield, and a specific activity of 323±37 mCi/μmol (n=6). Similarly, ^64Cu-Tz-SarAr was synthesized in greater than 99% radionuclidic purity, 79±7% decay-corrected isolated yield, and a specific activity of 310±36 mCi/μmol (n=6). The ^64Cu-Tz-NOTA radioligand was synthesized, radiolabeled, and purified as previously reported by Zeflis et al. J. Nucl. Med. 2013, 54, 1389-1396, which is hereby incorporated by reference in its entirety. In order to probe the influence of the structural changes on solubility, the partition coefficients of the various radioligands were determined using PBS (pH 7.4) and 1-octanol (Table 1). […] For example, the replacement of NOTA with SarAr rendered ^64Cu-Tz-SarAr (log D=−2.08±0.06) more hydrophobic than ^64Cu-Tz-NOTA (log D=−2.54±0.1).
^64Cu-Tz-PEG7-NOTA, ^64Cu-Tz-NOTA, or ^64Cu-Tz-SarAr (1 μCi) was added to a mixture of 3 mL PBS (pH 7.4) and 3 mL 1-octanol. The resulting mixture was then vortexed thoroughly for 10 minutes and subsequently centrifuged at 1,000 rpm for 10 min. 1 mL of each layer (PBS and 1-octanol) was then collected, and the amount of radioactivity in each sample was counted on a gamma counter calibrated for ^64Cu. The partition coefficient (log D) was calculated using the formula: Log D=log10[(countsoctanol)/(countsPBS] All experiments were performed in triplicate. Reaction of ^64Cu-Tz Radioligands with huA33-TCO

[3] = Stability of ^64Cu-labeled tetrazines in human serum at 37° C.; type: in vitro ADME
Experimental: as §1, §2

Compound	% Intact (PBS) ([1]; 2 h)	Log D [2]	% Intact (Serum) ([3]; 2 h)	% Intact (PBS) ([1]; 4 h) [%]	% Intact (PBS) ([1]; 8 h) [%]	% Intact (Serum) ([3]; 4 h) [%]	% Intact (Serum) ([3]; 8 h) [%]
O=C([O-])CN1CCN(CC(=O)[O-])CC(Cc2ccc(NC(=O)CCCC(=O)NCc3ccc(-c4nncnn4)cc3)cc2)N(CC(=O)[O-])CC1.[64Cu+2] (centres unmarked) [^64Cu-Tz-NOTA]	91.6 +/− 1.9%	−2.54±0.1 and −2.54 +/− 0.10	85.4 +/− 6.6%	–	–	–	–
O=C(O)CN1CCN(CC(=O)O)CC(Cc2ccc(NC(=S)NCCOCCOCCOCCOCCOCCOCCOCCNC(=O)CCCC(=O)NCc3ccc(-c4nncnn4)cc3)cc2)N(CC(=O)O)CC1.[64Cu] (centres unmarked) [^64Cu-Tz-PEG7-NOTA]	87.0±1.3% and 87.0 +/− 1.3%	−2.44±0.08 and −2.44 +/− 0.08	84.7 +/− 4.8% and 84.7 ± 4.8%	83.2±4.6	76.2 ± 2.6	77.8±3.5	64.0 ± 6.5
NC12CNCCNCC(NCc3ccc(CNC(=O)CCCC(=O)NCc4ccc(-c5nncnn5)cc4)cc3)(CNCCNC1)CNCCNC2.[64Cu+2] [^64Cu-Tz-SarAr]	94.7±0.6% and 94.7 +/− 0.6%	−2.08 +/− 0.06	92.0 +/− 2.1% and 92.0 ± 2.1%	93.3±0.5	89.7 ± 2.3	81.2±3.7	67.7 ± 4.3
